Test results as given in ChEMBL document CHEMBL4765372, “Design, synthesis and anti-inflammatory activity of 3-amino acid derivatives of ocotillol-type sapogenins” (Eur J Med Chem, 2020).
Blank lines part the entries; values can stand above or below the compound they belong to. Activity calls are given as the source filed them. The rule behind the calls is not given here.

How the values were obtained:
[1] = system: RAW264.7; experiment: Cytotoxicity against mouse RAW264.7 assessed as reduction in cell viability at 20 uM measured after 24 hrs by MTT assay relative to control; type: cell-based; settings: raw264.7, 24 h
[2] = system: RAW264.7; experiment: Antiinflammatory activity in mouse RAW264.7 cells assessed as inhibition of LPS-induced NO production at 20 uM after 24 hrs by Griess method; type: functional, cell-based
[3] = system: RAW264.7; experiment: Inhibition of LPS-induced TNFalpha protein expression in mouse RAW264.7 cells upto 30 uM measured after 6 hrs by ELISA; type: functional, cell-based; settings: dose microM <=30, time 6.0 hrs
[4] = system: RAW264.7; experiment: Inhibition of LPS-induced IL-6 protein expression in mouse RAW264.7 cells upto 30 uM measured after 6 hrs by ELISA; type: functional, cell-based; settings: dose microM <=30, time 6.0 hrs
[5] = system: RAW264.7; experiment: Inhibition of LPS-induced NO production in mouse RAW264.7 cells assessed as reduction in iNOS protein expression measured after 24 hrs by Western blot analysis; type: functional, cell-based; settings: dose microM <=30, time 24.0 hrs
[6] = system: RAW264.7; experiment: Inhibition of LPS-induced NO production in mouse RAW264.7 cells assessed as reduction in COX-2 protein expression measured after 24 hrs by Western blot analysis; type: functional, cell-based; settings: dose microM <=30, time 24.0 hrs
[7] = system: RAW264.7; experiment: Inhibition of LPS-stimulated NFkappaB activation in mouse RAW264.7 cells assessed as reduction in LPS-induced IkappaB phosphorylation at 7.5 to 30 uM after 2 hrs by Western blot analysis; type: cell-based; settings: dose 7.5-30 µM
[8] = molecular target: Transcription factor p65 (Mus musculus) (UniProt Q04207); experiment: Inhibition of LPS-induced NFkappaB p65 nucleus translocation in mouse RAW264.7 cells at 30 uM measured after 2 hr by immunofluorescence microscopic analysis; type: cell-based
[9] = system: RAW264.7; experiment: Inhibition of LPS-induced JNK phosphorylation in mouse RAW264.7 cell upto 30 uM measured after 2 hr by Western blot analysis; settings: dose microM <=30, time 2.0 hrs
[10] = molecular target: Mitogen-activated protein kinase 1 and 3 (ERK2 and ERK1) (Mus musculus) (UniProt P63085+Q63844); experiment: Inhibition of LPS-induced ERK1/2 phosphorylation in mouse RAW264.7 cell upto 30 uM measured after 2 hr by Western blot analysis; settings: dose microM <=30, time 2.0 hrs
[11] = system: RAW264.7; experiment: Inhibition of LPS-induced p38 phosphorylation in mouse RAW264.7 cell upto 30 uM measured after 2 hr by Western blot analysis; settings: dose microM <=30, time 2.0 hrs

Transcription factor p65 (Mus musculus), sequence (Q04207 whole entry): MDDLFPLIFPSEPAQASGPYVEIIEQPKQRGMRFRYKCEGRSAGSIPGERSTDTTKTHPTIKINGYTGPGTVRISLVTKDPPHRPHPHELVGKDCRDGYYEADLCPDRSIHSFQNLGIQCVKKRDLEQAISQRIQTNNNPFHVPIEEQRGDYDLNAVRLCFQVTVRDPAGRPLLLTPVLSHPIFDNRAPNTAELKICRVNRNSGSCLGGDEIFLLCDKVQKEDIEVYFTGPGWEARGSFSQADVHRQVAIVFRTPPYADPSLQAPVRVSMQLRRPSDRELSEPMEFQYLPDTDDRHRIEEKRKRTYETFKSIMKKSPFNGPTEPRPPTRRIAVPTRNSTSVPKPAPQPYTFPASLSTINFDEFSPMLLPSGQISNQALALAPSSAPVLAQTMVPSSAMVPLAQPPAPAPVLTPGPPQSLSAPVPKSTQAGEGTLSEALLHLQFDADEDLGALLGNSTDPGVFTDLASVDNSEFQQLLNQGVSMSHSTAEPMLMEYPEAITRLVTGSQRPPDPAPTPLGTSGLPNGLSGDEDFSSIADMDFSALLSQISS
Mitogen-activated protein kinase 1 and 3 (ERK2 and ERK1) (Mus musculus), sequence (P63085 whole entry, looked up): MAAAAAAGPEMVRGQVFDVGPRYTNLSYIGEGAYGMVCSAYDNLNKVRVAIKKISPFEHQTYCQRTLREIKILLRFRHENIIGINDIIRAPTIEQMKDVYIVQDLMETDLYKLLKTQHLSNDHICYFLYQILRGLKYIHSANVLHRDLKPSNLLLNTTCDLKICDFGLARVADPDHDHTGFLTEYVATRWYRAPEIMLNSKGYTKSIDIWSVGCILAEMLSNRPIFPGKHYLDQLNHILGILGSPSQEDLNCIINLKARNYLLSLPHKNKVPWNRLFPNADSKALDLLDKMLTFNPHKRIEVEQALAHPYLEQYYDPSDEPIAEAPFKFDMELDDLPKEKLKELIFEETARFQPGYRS
Mitogen-activated protein kinase 1 and 3 (ERK2 and ERK1) (Mus musculus), sequence (Q63844 whole entry, looked up): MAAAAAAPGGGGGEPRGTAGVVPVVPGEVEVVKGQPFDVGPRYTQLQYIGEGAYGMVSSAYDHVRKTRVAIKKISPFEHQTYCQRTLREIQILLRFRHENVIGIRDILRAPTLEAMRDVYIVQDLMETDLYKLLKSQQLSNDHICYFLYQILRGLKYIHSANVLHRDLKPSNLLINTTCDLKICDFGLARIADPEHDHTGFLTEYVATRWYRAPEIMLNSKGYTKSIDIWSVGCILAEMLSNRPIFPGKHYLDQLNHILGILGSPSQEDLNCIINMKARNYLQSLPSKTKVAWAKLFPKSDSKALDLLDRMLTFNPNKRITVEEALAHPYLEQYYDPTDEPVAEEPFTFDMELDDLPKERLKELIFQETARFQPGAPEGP

SMILES: CC(C)(C)OC(=O)CC[C@H](NC(=O)OC(C)(C)C)C(=O)O[C@H]1CC[C@]2(C)[C@H]3C[C@@H](O)[C@@H]4[C@@H]([C@]5(C)CC[C@@H](C(C)(C)O)O5)CC[C@@]4(C)[C@]3(C)CC[C@H]2C1(C)C
- Activity [1]: Non-Toxic

SMILES: CC(C)(O)[C@H]1CC[C@@](C)([C@H]2CC[C@]3(C)[C@@H]2[C@H](O)C[C@@H]2[C@@]4(C)CC[C@H](OC(=O)[C@@H](N)CCC(=O)O)C(C)(C)[C@@H]4CC[C@]23C)O1
- Activity [1]: Non-Toxic
- Activity [2]: Active

SMILES: CC(C)(O)[C@H]1CC[C@@](C)([C@H]2CC[C@]3(C)[C@@H]2[C@H](O)C[C@@H]2[C@@]4(C)CC[C@H](OC(=O)CNC(=O)CN)C(C)(C)[C@@H]4CC[C@]23C)O1
- Activity [1]: Non-Toxic
- Activity [2]: Active

SMILES: CC(C)(O)[C@@H]1CC[C@@](C)([C@H]2CC[C@]3(C)[C@@H]2[C@H](O)C[C@@H]2[C@@]4(C)CC[C@H](OC(=O)CN)C(C)(C)[C@@H]4CC[C@]23C)O1
- Activity [1]: Non-Toxic
- Activity [2]: Active

SMILES: CC(C)(C)OC(=O)NCC(=O)NCC(=O)O[C@H]1CC[C@]2(C)[C@H]3C[C@@H](O)[C@@H]4[C@@H]([C@]5(C)CC[C@@H](C(C)(C)O)O5)CC[C@@]4(C)[C@]3(C)CC[C@H]2C1(C)C
- Activity [1]: Non-Toxic
- Activity [2]: Active

SMILES: CC(C)(C)OC(=O)NCC(=O)O[C@H]1CC[C@]2(C)[C@H]3C[C@@H](O)[C@@H]4[C@@H]([C@]5(C)CC[C@@H](C(C)(C)O)O5)CC[C@@]4(C)[C@]3(C)CC[C@H]2C1(C)C
- Activity [1]: Non-Toxic
- Activity [2]: Active

- inhibition [8]: Dose-dependent effect
- inhibition [10]: Dose-dependent effect
SMILES: CC(C)(C)OC(=O)NCC(=O)NCC(=O)O[C@H]1CC[C@]2(C)[C@H]3C[C@@H](O)[C@@H]4[C@@H]([C@]5(C)CC[C@H](C(C)(C)O)O5)CC[C@@]4(C)[C@]3(C)CC[C@H]2C1(C)C
- Activity [1]: Non-Toxic
- Activity [2]: Active
- inhibition [3]: Dose-dependent effect
- inhibition [4]: Dose-dependent effect
- inhibition [5]: Dose-dependent effect
- inhibition [6]: Dose-dependent effect
- inhibition [7]: Dose-dependent effect
- inhibition [9]: inactive
- inhibition [11]: Dose-dependent effect

SMILES: CC(C)(C)OC(=O)N[C@@H](Cc1ccccc1)C(=O)O[C@H]1CC[C@]2(C)[C@H]3C[C@@H](O)[C@@H]4[C@@H]([C@]5(C)CC[C@H](C(C)(C)O)O5)CC[C@@]4(C)[C@]3(C)CC[C@H]2C1(C)C
- Activity [1]: Non-Toxic

SMILES: CC(C)(C)OC(=O)NCC(=O)O[C@H]1CC[C@]2(C)[C@H]3C[C@@H](O)[C@@H]4[C@@H]([C@]5(C)CC[C@H](C(C)(C)O)O5)CC[C@@]4(C)[C@]3(C)CC[C@H]2C1(C)C
- Activity [1]: Non-Toxic
- Activity [2]: Active

SMILES: CC(C)(O)[C@@H]1CC[C@@](C)([C@H]2CC[C@]3(C)[C@@H]2[C@H](O)C[C@@H]2[C@@]4(C)CC[C@H](OC(=O)[C@@H](N)CCC(=O)O)C(C)(C)[C@@H]4CC[C@]23C)O1
- Activity [1]: Non-Toxic
- Activity [2]: Active

SMILES: CC(C)(O)[C@@H]1CC[C@@](C)([C@H]2CC[C@]3(C)[C@@H]2[C@H](O)C[C@@H]2[C@@]4(C)CC[C@H](O)C(C)(C)[C@@H]4CC[C@]23C)O1
- Activity [1]: Non-Toxic
- Activity [2]: Active

SMILES: CC(C)(O)[C@H]1CC[C@@](C)([C@H]2CC[C@]3(C)[C@@H]2[C@H](O)C[C@@H]2[C@@]4(C)CC[C@H](OC(=O)CN)C(C)(C)[C@@H]4CC[C@]23C)O1
- Activity [1]: Non-Toxic
- Activity [2]: Active

SMILES: CC(C)(O)[C@@H]1CC[C@@](C)([C@H]2CC[C@]3(C)[C@@H]2[C@H](O)C[C@@H]2[C@@]4(C)CC[C@H](OC(=O)CNC(=O)CN)C(C)(C)[C@@H]4CC[C@]23C)O1
- Activity [1]: Non-Toxic
- Activity [2]: Active

SMILES: CC(C)(C)OC(=O)NCC(=O)NCC(=O)NCC(=O)O[C@H]1CC[C@]2(C)[C@H]3C[C@@H](O)[C@@H]4[C@@H]([C@]5(C)CC[C@H](C(C)(C)O)O5)CC[C@@]4(C)[C@]3(C)CC[C@H]2C1(C)C
- Activity [1]: Non-Toxic
- Activity [2]: inactive

SMILES: CC(C)(O)[C@@H]1CC[C@@](C)([C@H]2CC[C@]3(C)[C@@H]2[C@H](O)C[C@@H]2[C@@]4(C)CC[C@H](OC(=O)CNC(=O)CNC(=O)CN)C(C)(C)[C@@H]4CC[C@]23C)O1
- Activity [1]: Non-Toxic
- Activity [2]: Active

SMILES: CC(C)(C)OC(=O)CC[C@H](NC(=O)OC(C)(C)C)C(=O)O[C@H]1CC[C@]2(C)[C@H]3C[C@@H](O)[C@@H]4[C@@H]([C@]5(C)CC[C@H](C(C)(C)O)O5)CC[C@@]4(C)[C@]3(C)CC[C@H]2C1(C)C
- Activity [1]: Non-Toxic

SMILES: CC(C)(C)OC(=O)NCC(=O)NCC(=O)NCC(=O)O[C@H]1CC[C@]2(C)[C@H]3C[C@@H](O)[C@@H]4[C@@H]([C@]5(C)CC[C@@H](C(C)(C)O)O5)CC[C@@]4(C)[C@]3(C)CC[C@H]2C1(C)C
- Activity [1]: Non-Toxic

SMILES: CC(C)(O)[C@@H]1CC[C@@](C)([C@H]2CC[C@]3(C)[C@@H]2[C@H](O)C[C@@H]2[C@@]4(C)CC[C@H](OC(=O)[C@@H](N)Cc5ccccc5)C(C)(C)[C@@H]4CC[C@]23C)O1
- Activity [1]: Non-Toxic

SMILES: CC(C)(O)[C@@H]1CC[C@@](C)([C@H]2CC[C@]3(C)[C@@H]2[C@H](O)C[C@@H]2[C@@]4(C)CC[C@H](OC(=O)[C@@H](N)CCCCN)C(C)(C)[C@@H]4CC[C@]23C)O1
- Activity [1]: Non-Toxic

SMILES: CC(C)(O)[C@H]1CC[C@@](C)([C@H]2CC[C@]3(C)[C@@H]2[C@H](O)C[C@@H]2[C@@]4(C)CC[C@H](OC(=O)CNC(=O)CNC(=O)CN)C(C)(C)[C@@H]4CC[C@]23C)O1
- Activity [1]: Non-Toxic
- Activity [2]: Active

SMILES: CC(C)(C)OC(=O)NCCCC[C@H](NC(=O)OC(C)(C)C)C(=O)O[C@H]1CC[C@]2(C)[C@H]3C[C@@H](O)[C@@H]4[C@@H]([C@]5(C)CC[C@@H](C(C)(C)O)O5)CC[C@@]4(C)[C@]3(C)CC[C@H]2C1(C)C
- Activity [1]: Non-Toxic
- Activity [2]: Active

SMILES: C[C@]12CCC(=O)C=C1CC[C@@H]1[C@@H]2[C@@H](O)C[C@@]2(C)[C@H]1CC[C@]2(O)C(=O)COC(=O)CCC(=O)[O-].[Na+] [HYDROCORTISONE SODIUM SUCCINATE]
- Activity [1]: Non-Toxic

SMILES: CC(C)(O)[C@H]1CC[C@@](C)([C@H]2CC[C@]3(C)[C@@H]2[C@H](O)C[C@@H]2[C@@]4(C)CC[C@H](OC(=O)[C@@H](N)CCCCN)C(C)(C)[C@@H]4CC[C@]23C)O1
- Activity [1]: Non-Toxic

SMILES: CC(C)(C)OC(=O)NCCCC[C@H](NC(=O)OC(C)(C)C)C(=O)O[C@H]1CC[C@]2(C)[C@H]3C[C@@H](O)[C@@H]4[C@@H]([C@]5(C)CC[C@H](C(C)(C)O)O5)CC[C@@]4(C)[C@]3(C)CC[C@H]2C1(C)C
- Activity [1]: Non-Toxic
- Activity [2]: Active

SMILES: CC(C)(O)[C@H]1CC[C@@](C)([C@H]2CC[C@]3(C)[C@@H]2[C@H](O)C[C@@H]2[C@@]4(C)CC[C@H](O)C(C)(C)[C@@H]4CC[C@]23C)O1
- Activity [1]: Non-Toxic
- Activity [2]: Active

SMILES: CC(C)(O)[C@H]1CC[C@@](C)([C@H]2CC[C@]3(C)[C@@H]2[C@H](O)C[C@@H]2[C@@]4(C)CC[C@H](OC(=O)[C@@H](N)Cc5ccccc5)C(C)(C)[C@@H]4CC[C@]23C)O1
- Activity [1]: Non-Toxic

SMILES: CC(C)(C)OC(=O)N[C@@H](Cc1ccccc1)C(=O)O[C@H]1CC[C@]2(C)[C@H]3C[C@@H](O)[C@@H]4[C@@H]([C@]5(C)CC[C@@H](C(C)(C)O)O5)CC[C@@]4(C)[C@]3(C)CC[C@H]2C1(C)C
- Activity [1]: Non-Toxic
